Data reported in ChEMBL document CHEMBL4364317, “2-O-(2-chlorobenzoyl) maslinic acid triggers apoptosis in A2780 human ovarian carcinoma cells” (Eur J Med Chem, 2019).
The source made the active and inactive calls. No cut-off for these calls is given here.

How the values were obtained:
518A2 = experiment: Anticancer activity against human 518A2 cells measured after 96 hrs by sulforhodamine B assay; type: functional, cell-based; conditions: 518A2, 96 h
8505C = experiment: Anticancer activity against human 8505C cells measured after 96 hrs by sulforhodamine B assay; type: functional, cell-based
A253 cell line = experiment: Anticancer activity against human A253 cells measured after 96 hrs by sulforhodamine B assay; type: functional, cell-based; conditions: A253, 96 h
A2780 [1] = experiment: Anticancer activity against human A2780 cells measured after 96 hrs by sulforhodamine B assay; type: functional, cell-based; conditions: A2780, 96 h
A549 = experiment: Anticancer activity against human A549 cells measured after 96 hrs by sulforhodamine B assay; type: functional, cell-based; conditions: A549, 96 h
DLD-1 = experiment: Anticancer activity against human DLD1 cells measured after 96 hrs by sulforhodamine B assay; type: functional, cell-based; conditions: DLD-1, 96 h
HT-29 = experiment: Anticancer activity against human HT-29 cells measured after 96 hrs by sulforhodamine B assay; type: functional, cell-based; conditions: HT-29, 96 h
MCF7 = experiment: Anticancer activity against human MCF7 cells measured after 96 hrs by sulforhodamine B assay; type: functional, cell-based; conditions: MCF7, 96 h
SW-1736 = experiment: Anticancer activity against human SW1736 cells measured after 96 hrs by sulforhodamine B assay; type: functional, cell-based; conditions: SW-1736, 96 h
NIH3T3 = experiment: Cytotoxicity against mouse NIH/3T3 cells measured after 96 hrs by sulforhodamine B assay; type: cell-based; conditions: NIH3T3, 96 h
A2780 [2] = experiment: Induction of apoptosis in human A2780 cells assessed as loss of cell membrane integrity at 15 uM measured for 72 hrs by acridine orange/propidium iodide staining based fluorescence microscopic analysis; type: functional
A2780 [3] = experiment: Induction of apoptosis in human A2780 cells assessed as membrane blebbing at 15 uM measured for 72 hrs by acridine orange/propidium iodide staining based fluorescence microscopic analysis; type: functional, cell-based
A2780 [4] = experiment: Induction of necrosis in human A2780 cells at 15 uM measured for 72 hrs by acridine orange/propidium iodide staining based fluorescence microscopic analysis; type: functional, cell-based
A2780 [5] = experiment: Induction of apoptosis in human A2780 cells assessed as […] cell death at 15 uM measured after 24 to 72 hrs by annexin v flow cytometry analysis; type: functional, cell-based
A2780 [6] = experiment: Induction of apoptosis in human A2780 cells assessed as loss of cell membrane integrity at 30 uM measured for 72 hrs by acridine orange/propidium iodide staining based fluorescence microscopic analysis; type: functional
A2780 [7] = experiment: Induction of apoptosis in human A2780 cells assessed as membrane blebbing at 30 uM measured for 72 hrs by acridine orange/propidium iodide staining based fluorescence microscopic analysis; type: functional, cell-based
A2780 [8] = experiment: Induction of necrosis in human A2780 cells at 30 uM measured for 72 hrs by acridine orange/propidium iodide staining based fluorescence microscopic analysis; type: functional, cell-based
A2780 [9] = experiment: Induction of apoptosis in human A2780 cells assessed as […] cell death at 30 uM measured after 24 to 72 hrs by annexin v flow cytometry analysis; type: functional, cell-based

Row | Structure (SMILES) | EC50 (518A2) [µM] | EC50 (8505C) [µM] | EC50 (A253 cell line) [µM] | EC50 (A2780 [1]) [µM] | EC50 (A549) [µM] | EC50 (DLD-1) [µM] | EC50 (HT-29) [µM] | EC50 (MCF7) [µM] | EC50 (SW-1736) [µM] | EC50 (NIH3T3) [µM] | Activity (A2780 [2]) | Activity (A2780 [3]) | Activity (A2780 [4]) | Activity (A2780 [5]) | Activity (A2780 [6]) | Activity (A2780 [7]) | Activity (A2780 [8]) | Activity (A2780 [9])
1 | CC1(C)CC[C@]2(C(=O)O)CC[C@]3(C)C(=CC[C@@H]4[C@@]5(C)C[C@@H](O)[C@H](OC(=O)c6cc([N+](=O)[O-])cc([N+](=O)[O-])c6)C(C)(C)[C@@H]5CC[C@]43C)[C@@H]2C1 | – | 7.5 | 8.3 | 5.5 | – | 7.2 | 9.4 | 4.2 | 12.8 | 15.7 | – | – | – | – | – | – | – | –
2 | CC1(C)CC[C@]2(C(=O)O)CC[C@]3(C)C(=CC[C@@H]4[C@@]5(C)C[C@@H](OC(=O)c6cccnc6Cl)[C@H](OC(=O)c6cccnc6Cl)C(C)(C)[C@@H]5CC[C@]43C)[C@@H]2C1 | 17.1 | > 30 | > 30 | 29.3 | > 30 | > 30 | > 30 | > 30 | > 30 | > 30 | – | – | – | – | – | – | – | –
3 | CC(=O)O[C@@H]1C[C@]2(C)[C@H]3CC=C4[C@@H]5CC(C)(C)CC[C@]5(C(=O)O)CC[C@@]4(C)[C@]3(C)CC[C@H]2C(C)(C)[C@H]1OC(C)=O | 14.6 | 5.7 | 7.7 | 17.3 | 4.2 | 17 | 8.5 | 8.5 | – | 10.4 | – | – | – | – | – | – | – | –
4 | CC1(C)CC[C@]2(C(=O)O)CC[C@]3(C)C(=CC[C@@H]4[C@@]5(C)C[C@@H](OC(=O)c6ccccc6)[C@H](OC(=O)c6ccccc6)C(C)(C)[C@@H]5CC[C@]43C)[C@@H]2C1 | – | 16.4 | 12.7 | 11.2 | 17.4 | 17.9 | 16.5 | – | 19.4 | 23.2 | – | – | – | – | – | – | – | –
5 | CC1(C)CC[C@]2(C(=O)O)CC[C@]3(C)C(=CC[C@@H]4[C@@]5(C)C[C@@H](OC(=O)c6cc([N+](=O)[O-])cc([N+](=O)[O-])c6)[C@H](O)C(C)(C)[C@@H]5CC[C@]43C)[C@@H]2C1 | 12.1 | 8.1 | 9.7 | 6.2 | 6.1 | 7.1 | 11.1 | 5.1 | 14.8 | 17.4 | – | – | – | – | – | – | – | –
6 | CC1(C)CC[C@]2(C(=O)O)CC[C@]3(C)C(=CC[C@@H]4[C@@]5(C)C[C@@H](O)[C@H](O)C(C)(C)[C@@H]5CC[C@]43C)[C@@H]2C1 [MASLINIC ACID] | – | – | – | – | – | – | – | 24.4 | – | 16.6 | – | – | – | – | Active | Active | Active | Active

Second part, led by results:

Row | EC50 (518A2) [µM] | EC50 (8505C) [µM] | EC50 (A253 cell line) [µM] | EC50 (A2780 [1]) [µM] | EC50 (A549) [µM] | EC50 (DLD-1) [µM] | EC50 (HT-29) [µM] | EC50 (MCF7) [µM] | EC50 (SW-1736) [µM] | Structure (SMILES) | EC50 (NIH3T3) [µM] | Activity (A2780 [2]) | Activity (A2780 [3]) | Activity (A2780 [4]) | Activity (A2780 [5]) | Activity (A2780 [6]) | Activity (A2780 [7]) | Activity (A2780 [8]) | Activity (A2780 [9])
7 | 8.3 | 8.9 | 10.4 | 4.7 | 7.5 | 7.6 | 8.5 | 5.6 | 13.9 | CC1(C)CC[C@]2(C(=O)O)CC[C@]3(C)C(=CC[C@@H]4[C@@]5(C)C[C@@H](OC(=O)c6ccccc6Cl)[C@H](O)C(C)(C)[C@@H]5CC[C@]43C)[C@@H]2C1 | 10.4 | Active | Active | Active | Active | – | – | – | –
8 | 15.5 | 11.2 | 9 | 6.4 | 9.1 | 10.3 | 12.7 | – | 18.2 | CC1(C)CC[C@]2(C(=O)O)CC[C@]3(C)C(=CC[C@@H]4[C@@]5(C)C[C@@H](OC(=O)c6ccccc6)[C@H](O)C(C)(C)[C@@H]5CC[C@]43C)[C@@H]2C1 | 15 | – | – | – | – | – | – | – | –
9 | 11.6 | 12.6 | 12.9 | 6 | 9.4 | 10.7 | 6.3 | 7.1 | 16.9 | CC1(C)CC[C@]2(C(=O)O)CC[C@]3(C)C(=CC[C@@H]4[C@@]5(C)C[C@@H](OC(=O)c6ccccc6F)[C@H](O)C(C)(C)[C@@H]5CC[C@]43C)[C@@H]2C1 | 16.9 | – | – | – | – | – | – | – | –
10 | 11.8 | 12.6 | 6.6 | 6 | 9.8 | 10.1 | – | 6.7 | 21.2 | CC1(C)CC[C@]2(C(=O)O)CC[C@]3(C)C(=CC[C@@H]4[C@@]5(C)C[C@@H](O)[C@H](OC(=O)c6ccccc6F)C(C)(C)[C@@H]5CC[C@]43C)[C@@H]2C1 | 12.5 | – | – | – | – | – | – | – | –
11 | 6.8 | 6.9 | 5.4 | – | 5.8 | 5.2 | – | 3.3 | 12.9 | CC1(C)CC[C@]2(C(=O)O)CC[C@]3(C)C(=CC[C@@H]4[C@@]5(C)C[C@@H](O)[C@H](OC(=O)c6ccccc6Cl)C(C)(C)[C@@H]5CC[C@]43C)[C@@H]2C1 | 7.1 | – | – | – | – | – | – | – | –
12 | 21 | 8.8 | 11 | 19.9 | 4.3 | 23.1 | 10.7 | 11.5 | – | CC(=O)O[C@@H]1C[C@]2(C)[C@H]3CC=C4[C@@H]5CC(C)(C)CC[C@]5(C(=O)O)CC[C@@]4(C)[C@]3(C)CC[C@H]2C(C)(C)[C@H]1O | 15.4 | – | – | – | – | – | – | – | –
